Read-outs that look alike come from different tables or passages of the source.
Experiments:
Kir6.1/SUR2B = molecular target: T1, Kir6.1/SUR2B (Homo sapiens, UniProt O60706); assay: Thallium flux assay of Kir6.1/SUR2B in HEK293 cells; format: cell-based; settings: for Kir6.1/SUR2B inhibition, SAR in words: modification of the right side thiophene
T1 construct: expressed in transfected cells; also transiently transfected HEK293T
Source text: The pcDNA3.1-SUR2B plasmid was generously provided by Dr. Colin Nichols (Washington University). […] Stably transfected tetracycline-regulated expression human embryonic kidney-293 (T-Rex-HEK293) cells expressing both plasmids were generated by cotransfecting cells with Lipofectamine LTX followed by antibiotic selection and clonal selection using the thallium flux assay described below. […] The cell culture media contained Dulbecco's modified Eagle's medium (Gibco, 11965-092) supplied with heat-inactivated FBS (bio-techne, Minneapolis, MN […],10%), Blasticidine HCl (Gibco, A11139-03, 10 ug/mL), Penicillin-Streptomycin (Gibco, 15140-122, 2 mM), G418 Sulfate (CORNING, Corning, NY, 30-234-CR, 1 mg/mL), and Hygromycin B (Invitrogen, Carlsbad, CA, 10687-010, 250 ug/mL). For selectivity assays, HEK293T cells were cotransfected with Kir6.x and SURX with Lipofectamine LTX and incubated for 48 hours before thallium flux assays. […] [[…] et al., 2019]). […] Dye-loaded cells were washed with assay buffer and transferred to a Panoptic Kinetic Imaging Plate Reader (Wavefront Bioscience, Franklin, TN). Control and test compound treatments were for 4 minutes prior to adding 0.5 mM chloride-free thallium stimulus buffer (Ion Bioscience) to initiate thallium flux. […] Selectivity assays against other Kir channels were performed essentially as described previously ([[…] et al., 2018]; [[…] al., 2022]). […] Data were acquired using Panoptic Software, Waveguide (Wavefront Biosciences). Raw fluorescence values were imported for analysis into custom software (VICB, Vanderbilt University). Fluorescence versus time values for each well were normalized to the initial fluorescence value [F/F0]. […] CRC data were plotted in GraphPad Prism (GraphPad Software, San Diego, CA) and fitted with a four-parameter logistic model to determine IC50 values for rank-ordering hit potency.

Kir6.2/SUR1 = molecular target: T2, Kir6.2/SUR1 (Homo sapiens, UniProt Q09428); assay: Thallium flux assay of Kir6.2/SUR1 in HEK293 cells; format: cell-based; settings: T-Rex-HEK293-Kir6.2/SUR1 cells
T2 construct: expressed in transfected cells; also transiently transfected HEK293T
Method: The pcDNA3.1-SUR2B plasmid was generously provided by Dr. Colin Nichols (Washington University). The pcDNA5/TO-Kir6.1 plasmid was synthesized by GenScript. […] For selectivity assays, HEK293T cells were cotransfected with Kir6.x and SURX with Lipofectamine LTX and incubated for 48 hours before thallium flux assays.
Stable T-Rex-HEK293-Kir6.1/SUR2B cells or transiently transfected HEK293T cells were plated in polyamine-coated, clear-bottomed, black-walled 384-well plates and were cultured (37°C/5% CO2) overnight in Dulbecco’s modified Eagle’s medium (Gibco, Carlsbad, CA, 11995-065) containing 10% FBS (2 mM Penicillin-Streptomycin). The following day, cells were washed with assay buffer (i.e., Hanks’ balanced salt solution/20 mM HEPES) and loaded for 1 hour with thallium sensor dye Brilliant Thallium (Ion Bioscience, San Marcos, TX) at room temperature. Dye-loaded cells were washed with assay buffer and transferred to a Panoptic Kinetic Imaging Plate Reader (Wavefront Bioscience, Franklin, TN). Control and test compound treatments were for 4 minutes prior to adding 0.5 mM chloride-free thallium stimulus buffer (Ion Bioscience) to initiate thallium flux.

[1] = system: isolated mouse ductus arteriosus vessels; assay: Pressure myography of isolated ductus arteriosus vessels; settings: term gestation mouse DA
Method: CD-1 mice were maintained at Vanderbilt University Medical Center in accordance with protocols approved by the Institutional Animal Care and Use Committee. Timed matings were performed to produce offspring at specific stages of development. The presence of a vaginal plug was designated as embryonic day 1.
Term-gestation (embryonic day 19) fetal mouse DAs were isolated and mounted on glass pipet tips in microvessel perfusion chambers as previously reported ([Hooper et al., 2016]). Deoxygenated Krebs buffer was warmed to 37°C and circulated throughout the chamber. Vessels were pressurized in a stepwise manner to physiologic neonatal mouse mean arterial pressure (20 mmHg) and then challenged with 50 mM KCl to test reactivity. […] For dose-response studies, vessels were first dilated by circulating Krebs buffer bubbled with 95% nitrogen, 5% CO2 to mimic the hypoxic conditions of the womb. […] Following each dose, lumen diameters were allowed to plateau (approximately 20 minutes) before the next dose was added. Continuous lumen diameter measurements were recorded using a digital image capture system (IonOptix). An N of >6 vessels from at least three different litters was used for each experimental condition. Changes in lumen diameter are represented as the percent change in diameter compared with the baseline lumen diameter of vessels prior to drug exposure. […] Values represent mean ± S.D.

[2] = pinacidil-activated, read-out: Kir6.1/SUR2B IC50

T1 sequence (O60706 1-1549 isoform O60706-2, species assumed): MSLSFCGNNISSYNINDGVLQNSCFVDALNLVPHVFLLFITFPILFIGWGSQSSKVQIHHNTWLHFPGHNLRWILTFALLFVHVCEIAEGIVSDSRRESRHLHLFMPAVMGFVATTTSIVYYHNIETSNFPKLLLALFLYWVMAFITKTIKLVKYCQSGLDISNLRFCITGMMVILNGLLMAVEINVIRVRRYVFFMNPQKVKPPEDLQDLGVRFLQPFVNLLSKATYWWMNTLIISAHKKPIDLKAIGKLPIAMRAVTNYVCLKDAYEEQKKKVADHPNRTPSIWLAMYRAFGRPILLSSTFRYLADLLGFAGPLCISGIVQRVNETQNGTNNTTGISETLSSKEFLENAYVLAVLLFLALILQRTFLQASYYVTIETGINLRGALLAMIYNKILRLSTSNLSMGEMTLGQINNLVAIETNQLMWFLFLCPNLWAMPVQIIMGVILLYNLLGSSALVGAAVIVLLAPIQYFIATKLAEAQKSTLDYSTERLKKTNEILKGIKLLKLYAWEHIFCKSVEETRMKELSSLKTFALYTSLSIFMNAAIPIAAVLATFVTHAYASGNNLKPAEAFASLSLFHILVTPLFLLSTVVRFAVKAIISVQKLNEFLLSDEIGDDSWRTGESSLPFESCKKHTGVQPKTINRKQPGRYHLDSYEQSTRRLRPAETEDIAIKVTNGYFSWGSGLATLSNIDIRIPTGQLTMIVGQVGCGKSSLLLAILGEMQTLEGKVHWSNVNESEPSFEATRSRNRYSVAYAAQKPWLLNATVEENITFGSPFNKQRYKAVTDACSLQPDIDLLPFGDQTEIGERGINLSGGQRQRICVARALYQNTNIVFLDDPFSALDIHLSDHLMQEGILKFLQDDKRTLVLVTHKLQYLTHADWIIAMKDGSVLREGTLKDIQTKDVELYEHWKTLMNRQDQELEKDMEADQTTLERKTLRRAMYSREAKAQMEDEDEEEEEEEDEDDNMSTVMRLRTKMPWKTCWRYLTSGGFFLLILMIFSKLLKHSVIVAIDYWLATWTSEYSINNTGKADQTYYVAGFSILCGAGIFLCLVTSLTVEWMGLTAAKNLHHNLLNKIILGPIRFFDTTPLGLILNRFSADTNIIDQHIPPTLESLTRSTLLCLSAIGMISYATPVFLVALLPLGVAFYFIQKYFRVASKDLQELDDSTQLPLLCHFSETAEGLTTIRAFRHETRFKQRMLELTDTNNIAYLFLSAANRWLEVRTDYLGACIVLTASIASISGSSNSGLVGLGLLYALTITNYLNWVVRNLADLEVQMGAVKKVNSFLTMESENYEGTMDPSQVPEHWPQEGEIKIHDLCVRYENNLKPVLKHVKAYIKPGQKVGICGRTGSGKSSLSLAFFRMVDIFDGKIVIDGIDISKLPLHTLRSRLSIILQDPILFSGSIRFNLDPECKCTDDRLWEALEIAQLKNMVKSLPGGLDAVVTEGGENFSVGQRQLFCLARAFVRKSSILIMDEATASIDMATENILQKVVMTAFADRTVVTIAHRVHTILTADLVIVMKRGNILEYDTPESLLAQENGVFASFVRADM
T1 sequence (Q15842 whole entry partner, species assumed): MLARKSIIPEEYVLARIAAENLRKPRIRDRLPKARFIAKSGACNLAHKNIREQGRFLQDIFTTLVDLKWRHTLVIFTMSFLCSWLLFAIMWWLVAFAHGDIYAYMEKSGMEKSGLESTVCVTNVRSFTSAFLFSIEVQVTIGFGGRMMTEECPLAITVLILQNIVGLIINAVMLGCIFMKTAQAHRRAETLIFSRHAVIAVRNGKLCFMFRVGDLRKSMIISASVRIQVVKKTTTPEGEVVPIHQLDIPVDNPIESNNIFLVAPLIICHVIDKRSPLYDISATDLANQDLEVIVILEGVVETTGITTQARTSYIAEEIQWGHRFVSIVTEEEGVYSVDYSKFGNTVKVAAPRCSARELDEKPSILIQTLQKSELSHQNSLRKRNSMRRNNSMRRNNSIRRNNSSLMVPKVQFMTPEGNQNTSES
T2 sequence (Q09428 whole entry, species assumed): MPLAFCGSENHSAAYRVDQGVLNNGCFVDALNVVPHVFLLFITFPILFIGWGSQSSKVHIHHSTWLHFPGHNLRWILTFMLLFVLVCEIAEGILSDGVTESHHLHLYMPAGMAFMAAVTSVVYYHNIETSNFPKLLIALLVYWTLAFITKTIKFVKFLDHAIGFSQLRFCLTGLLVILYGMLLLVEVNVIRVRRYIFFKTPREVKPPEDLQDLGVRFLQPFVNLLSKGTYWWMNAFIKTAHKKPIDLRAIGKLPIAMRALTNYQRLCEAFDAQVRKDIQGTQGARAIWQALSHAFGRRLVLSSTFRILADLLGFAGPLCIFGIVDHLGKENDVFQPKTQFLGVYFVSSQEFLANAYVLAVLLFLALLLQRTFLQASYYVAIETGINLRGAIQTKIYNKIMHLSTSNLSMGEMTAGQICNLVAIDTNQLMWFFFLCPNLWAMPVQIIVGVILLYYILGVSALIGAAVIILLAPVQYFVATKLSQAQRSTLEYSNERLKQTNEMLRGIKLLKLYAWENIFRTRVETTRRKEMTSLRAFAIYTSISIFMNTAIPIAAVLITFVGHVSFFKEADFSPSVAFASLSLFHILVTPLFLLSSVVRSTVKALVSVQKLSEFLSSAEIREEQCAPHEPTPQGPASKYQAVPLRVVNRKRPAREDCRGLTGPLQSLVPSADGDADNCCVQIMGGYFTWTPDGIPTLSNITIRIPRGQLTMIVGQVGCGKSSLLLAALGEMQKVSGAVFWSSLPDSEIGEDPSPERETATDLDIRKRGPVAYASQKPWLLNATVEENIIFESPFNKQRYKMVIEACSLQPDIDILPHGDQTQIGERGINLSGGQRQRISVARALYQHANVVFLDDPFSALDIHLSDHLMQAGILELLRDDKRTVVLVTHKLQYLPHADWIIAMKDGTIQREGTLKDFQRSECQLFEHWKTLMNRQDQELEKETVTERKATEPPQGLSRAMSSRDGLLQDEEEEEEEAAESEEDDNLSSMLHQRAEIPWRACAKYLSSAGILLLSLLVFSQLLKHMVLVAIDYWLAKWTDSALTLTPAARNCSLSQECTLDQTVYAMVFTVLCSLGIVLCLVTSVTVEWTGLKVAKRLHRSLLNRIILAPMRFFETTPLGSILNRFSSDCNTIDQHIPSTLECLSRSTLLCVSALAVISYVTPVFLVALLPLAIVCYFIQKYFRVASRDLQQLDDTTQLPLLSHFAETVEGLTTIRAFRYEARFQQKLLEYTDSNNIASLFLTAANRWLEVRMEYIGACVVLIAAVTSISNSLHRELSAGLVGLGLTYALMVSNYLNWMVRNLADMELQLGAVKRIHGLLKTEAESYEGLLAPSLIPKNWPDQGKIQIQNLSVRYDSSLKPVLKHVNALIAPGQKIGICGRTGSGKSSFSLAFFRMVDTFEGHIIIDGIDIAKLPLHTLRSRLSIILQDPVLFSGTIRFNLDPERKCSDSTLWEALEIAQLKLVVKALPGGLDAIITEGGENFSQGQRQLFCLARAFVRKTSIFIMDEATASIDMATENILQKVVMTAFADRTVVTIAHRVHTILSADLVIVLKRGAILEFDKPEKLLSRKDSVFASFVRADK
T2 sequence (Q14654 whole entry partner, species assumed): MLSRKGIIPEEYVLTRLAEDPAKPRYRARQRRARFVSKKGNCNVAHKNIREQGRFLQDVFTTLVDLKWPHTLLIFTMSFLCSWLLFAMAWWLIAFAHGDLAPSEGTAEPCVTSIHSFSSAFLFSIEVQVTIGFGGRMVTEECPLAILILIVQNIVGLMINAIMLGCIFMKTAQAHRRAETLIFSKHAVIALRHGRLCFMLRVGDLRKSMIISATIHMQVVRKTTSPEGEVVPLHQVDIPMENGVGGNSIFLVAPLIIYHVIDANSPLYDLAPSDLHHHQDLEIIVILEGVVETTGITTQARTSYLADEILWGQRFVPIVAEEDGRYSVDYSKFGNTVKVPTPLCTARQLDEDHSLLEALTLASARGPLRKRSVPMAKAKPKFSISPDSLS

| IC50 (Kir6.1/SUR2B; [2]) [nM] | SMILES | other results |
| --- | --- | --- |
| 780 | Cn1nc(CNC(=O)Nc2cccs2)c2ccccc2c1=O [compound 12] | – |
| 987 | O=C(NCC1(c2ccc(F)cc2)CC1)Nc1cccs1 [compound 11] | – |
| 857 | Cn1nc(CNC(=O)Nc2cccc(C(F)(F)F)c2)cc1-c1ccncc1 [compound 10] | – |
| 6130 | Cn1nc(CNC(=O)Nc2cccs2)cc1-c1ccncc1 [compound 9] | – |

More lines, now with the values behind:

| SMILES | IC50 (Kir6.1/SUR2B; [2]) [nM] | other results |
| --- | --- | --- |
| Cc1nc(-c2cccs2)sc1CNC(=O)Nc1ccncc1 [compound 7] | 12600 | Kir6.1/SUR2B inhibition, SAR in words (Kir6.1/SUR2B): very weak |
| CC(N/C(=N\C#N)Nc1ccncc1)C(C)(C)C (centres unmarked) [pinacidil, reference compound] | – | effect on Kir6.2/SUR1 thallium flux (opening) (Kir6.2/SUR1): no effect |
| COc1ccc(Cl)cc1C(=O)NCCc1ccc(S(=O)(=O)NC(=O)NC2CCCCC2)cc1 [glibenclamide, reference compound] | – | IC50 (Kir6.1/SUR2B; transfected HEK-293 cells, pinacidil activation, read-out: Kir6.1/SUR2B IC50 (Fig. 4C)): 115 nM; ductus arteriosus vessel constriction ([1]; increasing concentrations, compound alone): constricted in a concentration-dependent manner; ductus arteriosus vessel constriction in the presence of pinacidil ([1]; with 10 µM pinacidil): substantially blunted vasoconstrictive effects |
| Cc1nc(-c2cccs2)sc1CNC(=O)Nc1cccnc1 [compound 6] | 1620 | Kir6.1/SUR2B inhibition, SAR in words (Kir6.1/SUR2B): very weak |
| O=C(NCc1cc(-c2ccncc2)n(C2CCCC2)n1)Nc1cccs1 [compound 8] | 527 | – |
| Cc1nc(-c2ccccc2F)sc1CNC(=O)Nc1cccs1 [compound 5] | 545 | – |
